Data published in ChEMBL document CHEMBL1150292, “4-benzyl-1H-imidazoles with oxazoline termini as histamine H3 receptor agonists” (J Med Chem, 2008).

Columns and labels:
[1] = molecular target: T1, Histamine H3 receptor (Homo sapiens, UniProt Q9Y5N1); test: Displacement of [3H]N-alpha-methylhistamine from human histamine H3 receptor expressed in CHO cells; format: cell-based
[2] = molecular target: Histamine H3 receptor (Cavia porcellus) (UniProt Q9JI35); settings: Ileum
[3] = molecular target: Histamine H3 receptor (Rattus norvegicus, UniProt Q9QYN8); test: Agonist activity at histamine H3 receptor in rat cortex
Histamine H3 receptor (Rattus norvegicus, UniProt Q9QYN8), sequence (Q9QYN8 whole entry): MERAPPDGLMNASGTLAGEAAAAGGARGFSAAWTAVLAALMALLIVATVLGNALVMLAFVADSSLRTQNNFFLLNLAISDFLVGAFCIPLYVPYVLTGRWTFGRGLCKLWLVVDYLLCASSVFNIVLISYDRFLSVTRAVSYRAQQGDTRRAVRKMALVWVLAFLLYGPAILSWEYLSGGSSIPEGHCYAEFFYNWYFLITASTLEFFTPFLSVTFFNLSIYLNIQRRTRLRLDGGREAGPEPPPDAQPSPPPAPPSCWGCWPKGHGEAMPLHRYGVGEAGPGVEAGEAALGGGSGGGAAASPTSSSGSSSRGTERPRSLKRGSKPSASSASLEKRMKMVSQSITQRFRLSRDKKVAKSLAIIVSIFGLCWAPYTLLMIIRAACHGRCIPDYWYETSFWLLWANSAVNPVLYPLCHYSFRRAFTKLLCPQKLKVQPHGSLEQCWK

[4] = molecular target: Histamine H1 receptor (Homo sapiens) (UniProt P35367); test: Inhibition of histamine H1 receptor at 10 uM
Histamine H1 receptor (Homo sapiens), sequence (P35367 whole entry): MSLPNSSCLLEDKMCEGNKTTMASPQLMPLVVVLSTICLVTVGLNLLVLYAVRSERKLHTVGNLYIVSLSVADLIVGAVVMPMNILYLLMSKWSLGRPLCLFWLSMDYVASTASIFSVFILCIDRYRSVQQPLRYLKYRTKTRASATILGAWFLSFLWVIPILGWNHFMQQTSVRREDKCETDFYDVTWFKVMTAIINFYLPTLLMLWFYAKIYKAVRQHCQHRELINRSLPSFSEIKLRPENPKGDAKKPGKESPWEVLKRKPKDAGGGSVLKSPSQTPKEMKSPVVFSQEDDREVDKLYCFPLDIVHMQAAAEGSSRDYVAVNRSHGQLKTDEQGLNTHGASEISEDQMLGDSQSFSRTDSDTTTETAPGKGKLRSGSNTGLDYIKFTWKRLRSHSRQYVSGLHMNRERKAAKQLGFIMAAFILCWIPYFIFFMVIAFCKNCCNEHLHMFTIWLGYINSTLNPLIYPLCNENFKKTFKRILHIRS

[5] = Inhibition of […] in human liver microsomes assessed as midazolam 1'-hydroxylase activity; format: ADME, Microsome
[6] = molecular target: Histamine H2 receptor (Homo sapiens) (UniProt P25021); test: Inhibition of histamine H2 receptor at 10 uM
Histamine H2 receptor (Homo sapiens), sequence (P25021 whole entry): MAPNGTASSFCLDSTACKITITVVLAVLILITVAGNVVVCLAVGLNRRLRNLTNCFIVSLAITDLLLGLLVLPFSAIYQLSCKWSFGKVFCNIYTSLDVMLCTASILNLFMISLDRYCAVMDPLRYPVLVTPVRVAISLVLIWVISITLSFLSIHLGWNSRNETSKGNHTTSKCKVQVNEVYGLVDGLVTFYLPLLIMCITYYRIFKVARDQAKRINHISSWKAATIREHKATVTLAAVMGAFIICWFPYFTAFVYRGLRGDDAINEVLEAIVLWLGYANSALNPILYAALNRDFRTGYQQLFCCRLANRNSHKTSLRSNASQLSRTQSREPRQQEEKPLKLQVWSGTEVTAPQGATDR

[7] = molecular target: T2, Histamine H4 receptor (Homo sapiens, UniProt Q9H3N8); test: Displacement of [3H]histamine from human histamine H4 receptor expressed in CHO cells; format: cell-based
T2 sequence (Q9H3N8 whole entry): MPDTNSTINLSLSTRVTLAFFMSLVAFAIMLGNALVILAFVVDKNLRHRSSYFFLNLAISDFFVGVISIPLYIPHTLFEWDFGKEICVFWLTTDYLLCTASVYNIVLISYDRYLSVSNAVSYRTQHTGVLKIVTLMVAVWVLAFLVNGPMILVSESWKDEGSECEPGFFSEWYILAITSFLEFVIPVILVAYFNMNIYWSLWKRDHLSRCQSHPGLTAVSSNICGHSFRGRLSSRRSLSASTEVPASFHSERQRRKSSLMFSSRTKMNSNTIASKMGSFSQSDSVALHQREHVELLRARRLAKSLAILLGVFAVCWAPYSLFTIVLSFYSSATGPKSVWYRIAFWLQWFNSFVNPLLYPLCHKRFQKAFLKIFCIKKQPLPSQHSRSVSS

[8] = molecular target: T1, Histamine H3 receptor; test: Agonist activity at human histamine H3 receptor assessed as effect on [35S]GTPgammaS binding; format: functional
[9] = molecular target: T3, Histamine H3 receptor (Cavia porcellus, UniProt Q9JI35); test: Antagonist activity at guinea pig histamine H3 receptor assessed as inhibition of electrically induced twitch contraction; format: functional; settings: read-out: pA2 (converted)
T3 sequence (Q9JI35 whole entry): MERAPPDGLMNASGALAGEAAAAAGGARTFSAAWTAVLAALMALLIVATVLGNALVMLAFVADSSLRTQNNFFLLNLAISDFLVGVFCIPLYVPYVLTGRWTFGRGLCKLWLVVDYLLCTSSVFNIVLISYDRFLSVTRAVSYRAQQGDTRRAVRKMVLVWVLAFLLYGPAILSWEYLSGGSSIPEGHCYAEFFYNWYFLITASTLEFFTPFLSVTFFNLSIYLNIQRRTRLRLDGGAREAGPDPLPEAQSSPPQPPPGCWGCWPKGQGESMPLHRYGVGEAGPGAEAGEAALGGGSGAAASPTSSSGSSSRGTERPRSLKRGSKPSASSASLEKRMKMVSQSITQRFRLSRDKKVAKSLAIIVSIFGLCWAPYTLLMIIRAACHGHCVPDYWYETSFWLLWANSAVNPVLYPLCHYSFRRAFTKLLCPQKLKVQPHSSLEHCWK

[10] = molecular target: Cytochrome P450 2D6 (Homo sapiens, UniProt P10635); test: Inhibition of CYP2D6 in human liver microsomes assessed as dextromethorphan O-demethylase activity; format: ADME, Microsome
Cytochrome P450 2D6, sequence (P10635 whole entry): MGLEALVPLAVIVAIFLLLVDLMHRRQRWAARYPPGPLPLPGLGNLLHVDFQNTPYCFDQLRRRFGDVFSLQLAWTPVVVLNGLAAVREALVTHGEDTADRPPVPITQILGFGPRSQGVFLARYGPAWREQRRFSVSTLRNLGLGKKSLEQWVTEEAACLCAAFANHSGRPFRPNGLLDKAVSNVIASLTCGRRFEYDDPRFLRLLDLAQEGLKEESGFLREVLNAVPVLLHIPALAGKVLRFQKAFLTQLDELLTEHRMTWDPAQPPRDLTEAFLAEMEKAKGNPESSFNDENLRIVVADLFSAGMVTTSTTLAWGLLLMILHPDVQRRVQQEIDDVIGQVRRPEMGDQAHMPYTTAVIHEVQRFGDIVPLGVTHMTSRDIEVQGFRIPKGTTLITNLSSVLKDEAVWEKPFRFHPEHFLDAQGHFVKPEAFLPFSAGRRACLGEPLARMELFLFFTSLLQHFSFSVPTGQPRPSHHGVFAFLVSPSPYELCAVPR

[11] = molecular target: T2, Histamine H4 receptor; test: Displacement of [3H]histamine from human histamine H4 receptor expressed in CHO cells at 10 uM; format: cell-based
[12] = molecular target: T3, Histamine H3 receptor; test: Activity at histamine H3 receptor in guinea pig ileum; format: tissue-based
[13] = molecular target: Histamine H3 receptor (Rattus norvegicus) (UniProt Q9QYN8); settings: Cortex
Histamine H3 receptor (Rattus norvegicus), sequence (Q9QYN8 whole entry): as the sequence (Q9QYN8 whole entry) above

[14] = molecular target: T1, Histamine H3 receptor; test: Agonist activity at human histamine H3 receptor assessed as beta galactosidase activity; format: functional

T1 sequence (Q9Y5N1 whole entry): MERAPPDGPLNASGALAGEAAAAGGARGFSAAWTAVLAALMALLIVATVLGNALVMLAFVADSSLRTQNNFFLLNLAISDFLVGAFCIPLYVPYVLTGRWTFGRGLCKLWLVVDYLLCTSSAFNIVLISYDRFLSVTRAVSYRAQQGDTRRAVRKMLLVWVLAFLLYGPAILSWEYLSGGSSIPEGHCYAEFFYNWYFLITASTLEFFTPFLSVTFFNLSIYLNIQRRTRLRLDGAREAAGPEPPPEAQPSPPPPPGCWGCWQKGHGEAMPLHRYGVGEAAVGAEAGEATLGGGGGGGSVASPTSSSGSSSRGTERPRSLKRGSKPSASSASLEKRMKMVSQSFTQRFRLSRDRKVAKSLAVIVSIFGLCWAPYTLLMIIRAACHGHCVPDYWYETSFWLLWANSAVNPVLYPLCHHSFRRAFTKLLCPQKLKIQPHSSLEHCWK
Histamine H3 receptor (Cavia porcellus), sequence (Q9JI35 whole entry): as the sequence (Q9JI35 whole entry) above

`c1cc(Cc2cnc[nH]2)cc(C2=NC3(CCCC3)CO2)c1` showed a Ki [1] of 39.8 nM.

In the case of `c1cc(Cc2cnc[nH]2)cc(-c2ccncc2)c1`, the Ki [1] is reported as 427 nM.

`c1ccc(-c2cccc(Cc3c[nH]cn3)c2)nc1` showed a Ki [1] of 40.7 nM.

For `CNCCc1cnc[nH]1`, the pD2 [2] was 7.8.

`N#Cc1ccc(Cc2c[nH]cn2)cc1` gave a Ki [1] of 813 nM.

In the case of `c1ccc(COCCCc2c[nH]cn2)cc1` [PROXYFAN], the Ki [3] is reported as 10 nM.

For `CC(C)(C)CC(=O)c1cccc(Cc2c[nH]cn2)c1`, the inhibition [4] was less than 20%, the IC50 [5] was 1100 nM and the inhibition [6] was less than 40%.

`N#Cc1cccc(Cc2c[nH]cn2)c1` showed a Ki [1] of 155 nM.

In the case of `CC(C)(C)CC(=O)c1cccc(Cc2cnc[nH]2)c1`, the Ki [7] is reported as 5.62 nM, the Ki [1] is reported as 32.4 nM and the EC50 [8] is reported as 79.4 nM. For the same molecule, the Kb [9] was 955 nM and the IC50 [10] was 1930 nM.

Work on `CC1(C)COC(c2ccc(Cc3c[nH]cn3)cc2)=N1` yielded an inhibition [11] of 17%, a Ki [1] of 2510 nM and an IC50 [5] of 2520 nM. It also gave an IC50 [10] of 543 nM.

Molecule `C[C@H]1CNC[C@@H]1c1c[nH]cn1` has a Ki [12] of 2.51 nM and a pD2 [2] of 7.5.

For `Brc1ccc(Cc2c[nH]cn2)cc1`, the Ki [1] was 417 nM and the EC50 [8] was 631 nM.

For `Nc1ccc(Cc2c[nH]cn2)cc1`, the Ki [1] was 257 nM.

`CNCCc1c[nH]cn1` showed a Ki [12] of 2.51 nM.

`C(#Cc1cccc2ccccc12)c1cccc(Cc2c[nH]cn2)c1` gave a Ki [1] of 1740 nM.

Molecule `CC(C)(C)C#Cc1cccc(Cc2c[nH]cn2)c1` has a Ki [7] of 5.62 nM, a Ki [1] of 4.47 nM and an inhibition [4] of less than 20%. For the same molecule, the EC50 [8] was 7.94 nM, the IC50 [5] was 1860 nM and the Kb [9] was 79.4 nM. The inhibition [6] was less than 40% and the IC50 [10] was 1780 nM.

Work on `CC(C)(C)CCC#C[C@@H]1C[C@H]1c1c[nH]cn1` (single isomer, unassigned) [CIPRALISANT] yielded a Ki [1] of 3.98 nM.

`CC1(C)COC(c2cccc(Cc3c[nH]cn3)c2)=N1` gave a Ki [1] of 3.98 nM and an EC50 [8] of 15.8 nM.

In the case of `C[C@@H](N)Cc1c[nH]cn1`, the pD2 [13] is reported as 8.4.

In the case of `CC1(C)CN=C(c2cccc(Cc3cnc[nH]3)c2)OC1`, the Ki [1] is reported as 2510 nM.

With `c1cc(Cc2cnc[nH]2)ccn1` [IMMETHRIDINE] the EC50 [14] was 0.2 nM.

Molecule `CC1CC(C)(C)N=C(c2cccc(Cc3c[nH]cn3)c2)O1` (stereo unspecified) has a Ki [7] of 8.32 nM, a Ki [1] of 1.26 nM and an inhibition [4] of less than 20%. It also gave an EC50 [8] of 2 nM, an IC50 [5] of 873 nM and a Kb [9] of 3.98 nM. The inhibition [6] was less than 40% and the IC50 [10] was 292 nM.

`c1cc(Cc2cnc[nH]2)cc(C2=NC(CC3CCCCC3)CO2)c1` (stereo unspecified) gave a Ki [1] of 708 nM.

With `c1nc(CC2CCNCC2)c[nH]1` [IMMEPIP] the Ki [1] was 0.407 nM.

With `CCCC#Cc1cccc(Cc2c[nH]cn2)c1` the Ki [1] was 3.16 nM, the IC50 [5] was 1640 nM and the IC50 [10] was 644 nM.

`c1ccc(C[C@@H]2COC(c3cccc(Cc4cnc[nH]4)c3)=N2)cc1` showed a Ki [1] of 89.1 nM, an EC50 [8] of 79.4 nM and a Kb [9] of 2240 nM.

Molecule `c1cc(Cc2c[nH]cn2)cc(C2=NCC3(CCCCC3)O2)c1` has a Ki [1] of 56.2 nM.

With `CCCCc1c[nH]cn1` the Ki [1] was 25.1 nM and the EC50 [14] was 31.6 nM.

Molecule `CC(C)(C)C#Cc1ccc(Cc2c[nH]cn2)cc1` has a Ki [1] of 537 nM.

`c1ccc(-c2cccc(Cc3cnc[nH]3)c2)cc1` gave a Ki [1] of 33.1 nM and an EC50 [8] of 200 nM.

Molecule `C(#Cc1cccc(Cc2c[nH]cn2)c1)c1ccccc1` has a Ki [1] of 1.82 nM, an IC50 [5] of 2760 nM and an IC50 [10] of 488 nM.

In the case of `c1ccc(Cc2c[nH]cn2)cc1`, the Ki [1] is reported as 162 nM.
